{"source": "patent US20210213010A1", "about": "“TLR7/8 AGONISTS AND LIPOSOME COMPOSITIONS” (Torque Therapeutics, Inc., priority 2018, published 2021)", "key": {"[1]": {"assay": "Remote loading efficiency of small molecules into liposomes (PD-10 size exclusion, HPLC)", "type": "physicochemical", "experimental": "A solution of the small molecule (modified TLR agonist) was lyophilized in a vial equipped with a magnetic stir bar over night to form a fluffy white powder. This powder was added either formulation F1 or F2 to the wanted drug/lipid ratio. The resulting mixture was stirred at 55° C. or 41° C. for formulation F1 and F2 respectively for 3h, then allowed to cool to rt before the solutions were refrigerated and stored at 4° C.\nRemote loading efficiency was determined at 1 h and 3 h by taking out 100 μL of the mixture and applying this and 900 μL buffer (25 mM HEPES, 10 vol % sucrose buffer, pH 7.4) to a PD-10 column size exclusion column. Following, 10×1 mL fractions were collected, and the small molecule compound concentrations in the loading mixture and in the liposome containing fractions were determined on analytical HPLC. Loading efficiency was calculated as percentage of molecules found in liposome containing fractions out of the applied amount. The general procedure for the small molecule remote loading is visualized in FIG. 3. The general concept of remote loading imidazoquinolines in liposomes that are dialyzed against HEPES is visualized in FIG. 4."}, "[2]": {"assay": "Cryo-TEM of remote loaded liposomes (intraliposomal precipitation)", "type": "physicochemical", "experimental": "CryoTEM samples of 3 μL of liposome solution was placed on a lacy carbon 300 mesh copper TEM grid, blotted and plunge frozen in liquid ethane using a FEI Vitrobot Mark IV. Samples were imaged using a FEI Tecnai G2 20 TWIN transmission electron microscope operated at 200 keV in low dose mode with a FEI High-Sensitive (HS) 4 k×4 k Eagle camera."}, "whole human blood [3]": {"tested_on": "whole human blood", "assay": "IL-6 cytokine expression in stimulated whole human blood (ELISA)", "type": "cell-based", "experimental": "(§1) This example describes the general procedure used to assess the level of cytokine IL-6 and IL-12p40 expressions upon stimuli of whole human blood with small molecules or small molecules in liposomal formulations F1 and F2. 10 mM DMSO solutions of the small molecules were diluted in RPMI media (RPMI-1640, Sigma Aldrich) with 1% penicillin/streptomycin (p/s). […], of each dilution was transferred to Nunc™ 96-Well Polystyrene Conical Bottom MicroWell™ Plates in duplicates. Blood was drawn from two human donors, diluted in RPMI with 1% p/s and added to each well to reach final concentrations of 10 μM, 1 μM, and 0.1 μM of the small molecules. The plates were incubated at 37° C. in a cell incubator for 24h. The plates were then spun down in a plate centrifuge with 3200 revolutions per minute (rpm) for 10 min before 50 uL of the supernatant was transferred to new 96-well plates. The supernatant samples were subsequently stored at −80° C. until the day of cytokine measurements.\n(§2) The level of cytokine expression was measured using either an IL-6 ELISA Kit (RnDSystems, cat #DY206) for IL-6, or an IL-12p40 ELISA Kit (RnDSystems, cat #DY1240) according to the manufacturer's protocols. This general procedure was used to generate the examples 24-33."}, "whole human blood [4]": {"tested_on": "whole human blood", "assay": "IL-12p40 cytokine expression in stimulated whole human blood (ELISA)", "type": "cell-based", "experimental": "as §1, §2"}, "[5]": {"details": "free small molecule, 10, 1, 0.1 μM, 24 h, two donors"}}, "note": "Entries after “also recorded” stand apart in the source; their conditions may differ."}
{"smiles": "CCOCc1nc2c(N)nc3ccccc3c2n1CCN", "note": "[MK079-D, 1-(2-aminoethyl)-2-(ethoxymethyl)-1H-imidazo[4,5-c]quinolin-4-amine]", "values": [{"measurement": "Remote loading efficiency 1 h (%)", "setting": "[1]; formulation F1, HEPES, drug/lipid ratio 0.06, 1 h", "result": 87, "unit": "%"}, {"measurement": "Remote loading efficiency 3 h (%)", "setting": "[1]; formulation F1, HEPES, drug/lipid ratio 0.06, 3 h", "result": 98, "unit": "%"}, {"measurement": "Remote loading efficiency 1 h (%)", "setting": "[1]; formulation F1, HEPES, drug/lipid ratio 0.10, 1 h", "result": 93, "unit": "%"}, {"measurement": "Remote loading efficiency 3 h (%)", "setting": "[1]; formulation F1, HEPES, drug/lipid ratio 0.10, 3 h", "result": 95, "unit": "%"}, {"measurement": "Remote loading efficiency 1 h (%)", "setting": "[1]; formulation F1, HEPES, drug/lipid ratio 0.25, 1 h", "result": 90, "unit": "%"}, {"measurement": "Remote loading efficiency 3 h (%)", "setting": "[1]; formulation F1, HEPES, drug/lipid ratio 0.25, 3 h", "result": 98, "unit": "%"}, {"measurement": "Remote loading efficiency 1 h (%)", "setting": "[1]; formulation F1, HEPES, drug/lipid ratio 0.50, 1 h", "result": 77, "unit": "%"}, {"measurement": "Remote loading efficiency 3 h (%)", "setting": "[1]; formulation F1, HEPES, drug/lipid ratio 0.50, 3 h", "result": 70, "unit": "%"}, {"measurement": "Remote loading efficiency 1 h (%)", "setting": "[1]; formulation F1, TAPS pH 8.5, drug/lipid ratio 0.06, 1 h", "result": 80, "unit": "%"}, {"measurement": "Remote loading efficiency 3 h (%)", "setting": "[1]; formulation F1, TAPS pH 8.5, drug/lipid ratio 0.06, 3 h", "result": 77, "unit": "%"}, {"measurement": "Remote loading efficiency 1 h (%)", "setting": "[1]; formulation F2, HEPES, drug/lipid ratio 0.06, 1 h", "result": 81, "unit": "%"}, {"measurement": "Remote loading efficiency 3 h (%)", "setting": "[1]; formulation F2, HEPES, drug/lipid ratio 0.06, 3 h", "result": 81, "unit": "%"}, {"measurement": "Remote loading efficiency 1 h (%)", "setting": "[1]; formulation F2, HEPES, drug/lipid ratio 0.10, 1 h", "result": 82, "unit": "%"}, {"measurement": "Remote loading efficiency 3 h (%)", "setting": "[1]; formulation F2, HEPES, drug/lipid ratio 0.10, 3 h", "result": 88, "unit": "%"}, {"measurement": "Remote loading efficiency 1 h (%)", "setting": "[1]; formulation F2, HEPES, drug/lipid ratio 0.25, 1 h", "result": 90, "unit": "%"}, {"measurement": "Remote loading efficiency 3 h (%)", "setting": "[1]; formulation F2, HEPES, drug/lipid ratio 0.25, 3 h", "result": 94, "unit": "%"}, {"measurement": "Remote loading efficiency 1 h (%)", "setting": "[1]; formulation F2, HEPES, drug/lipid ratio 0.50, 1 h", "result": 73, "unit": "%"}, {"measurement": "Remote loading efficiency 3 h (%)", "setting": "[1]; formulation F2, HEPES, drug/lipid ratio 0.50, 3 h", "result": 57, "unit": "%"}, {"measurement": "Remote loading efficiency 1 h (%)", "setting": "[1]; formulation F2, TAPS pH 8.5, drug/lipid ratio 0.06, 1 h", "result": 80, "unit": "%"}, {"measurement": "Remote loading efficiency 3 h (%)", "setting": "[1]; formulation F2, TAPS pH 8.5, drug/lipid ratio 0.06, 3 h", "result": 70, "unit": "%"}, {"measurement": "Precipitation in liposomes (Cryo-TEM)", "setting": "[2]; formulation F1, HEPES, drug/lipid ratio 0.25", "result": "precipitation of the small molecule inside the aqueous core of the liposomes"}, {"measurement": "Precipitation in liposomes (Cryo-TEM)", "setting": "[2]; formulation F1, HEPES, drug/lipid ratio 0.50", "result": "precipitation of the small molecule in the aqueous core of the liposomes"}, {"measurement": "Precipitation in liposomes (Cryo-TEM)", "setting": "[2]; formulation F2, drug/lipid ratio 0.25", "result": "precipitation of the small molecule in the aqueous core of the liposomes"}, {"measurement": "Precipitation in liposomes (Cryo-TEM)", "setting": "[2]; formulation F2, drug/lipid ratio 0.50", "result": "precipitation of the small molecule in the aqueous core of the liposomes"}, {"measurement": "Expression of IL-6 upon stimulation of whole human blood", "setting": "whole human blood [3]; [5]", "result": "expression of IL-6 at 10 μM in both donors"}, {"measurement": "Expression of IL-6 upon stimulation of whole human blood", "setting": "whole human blood [3]; remote loaded in formulation F1, HEPES, drug/lipid ratio 0.06", "result": "an expression of IL-6 at 10 μM"}, {"measurement": "Expression of IL-6 upon stimulation of whole human blood", "setting": "whole human blood [3]; remote loaded in formulation F1, TAPS, drug/lipid ratio 0.06", "result": "no expression of IL-6 at 10 μM"}, {"measurement": "Expression of IL-6 upon stimulation of whole human blood", "setting": "whole human blood [3]; remote loaded in formulation F2, HEPES, drug/lipid ratio 0.06", "result": "able to induce expression of IL-6"}, {"measurement": "Expression of IL-6 upon stimulation of whole human blood", "setting": "whole human blood [3]; remote loaded in formulation F2, TAPS, drug/lipid ratio 0.06", "result": "resulted in an expression of IL-6"}, {"measurement": "Expression of IL-12p40 upon stimulation of whole human blood", "setting": "whole human blood [4]; [5]", "result": "expression of IL-12p40 at 10 μM in both donors"}, {"measurement": "Expression of IL-12p40 upon stimulation of whole human blood", "setting": "whole human blood [4]; remote loaded in formulation F1, HEPES or TAPS, drug/lipid ratio 0.06", "result": "did not lead to any expression of IL-12p40"}, {"measurement": "Expression of IL-12p40 upon stimulation of whole human blood", "setting": "whole human blood [4]; remote loaded in formulation F2, HEPES or TAPS, drug/lipid ratio 0.06", "result": "Induction of IL-12p40 expression was observed; also recorded: larger expression of IL-12p40 when dialyzed against HEPES compared to TAPS"}]}
